The values below come from US12378202B2, “Tetrahydrobenzoazepinones and related analogs for inhibiting YAP/TAZ-TEAD” (THE KATHOLIEKE UNIVERSITEIT LEUVEN, priority 2021, dated 2025).

Assay type in all cases: cell-based
The subject of experiment [1] is YAP/TAZ-TEAD transcription. The experiment is described as follows: Reporter gene assay (TEAD-responsive element luciferase reporter in Hek293T cells) for inhibition of YAP/TAZ-TEAD transcription. The following applies: 24 hours incubation. Here is the method:
Hek293T cells are cultured in DMEM supplemented with 10% fetal bovine serum, Sodium pyruvate, Sodium bicarbonate, L-glutamine. The cells are harvested and transiently transfected with TEAD-responsive element luciferase reporter. Transfected cells are plated in 384-wells plate containing pre-diluted compounds. After 24 hours incubation at 37° C./5% CO2, assay plates were cooled down to RT and levelled to an equal volume per well, prior to the addition of 25 uL luciferase substrate SteadyLite (Perkin Elmer)/well. The plate was shaken for 10 min at 600 rpm, centrifuged for 1 min at 500 rpm and measured with an Envision reader (PerkinElmer). The amount of relative light units produced by the TEAD reporter is used to calculated percent of inhibition.
The percent of reporter inhibition was calculated in the presence of a positive control inhibitor (100% inhibition)versus a condition with the presence of the vehicle basal activity of the reporter (0% inhibition). The ability of a test compound to inhibit this activity was determined as:
Percentage inhibition=[1-((RLU determined in the presence of vehicle−RLU determined for sample with test compound present) divided by (RLU determined in the presence of vehicle−RLU determined for sample with positive control inhibitor))]*100
The activities of example compounds tested are depicted in Table 3. The activity ranges A, B and C refer to IC50 values in the reporter gene assay as follows: “A”: IC50<1 μM; “B”: 1 μM≤IC50≤20 μM and “C”: IC50>20 μM; NT=not tested.

Experiment [2] concerns NCI-H226. Kind of experiment: Mesothelioma cell line proliferation assay (ATPlite), NCI-H226. The following applies: Homo sapiens, 144 h; NCI-H226 mesothelioma cells, 6 days incubation, ATPlite cell viability. The protocol: (§1) Mesothelioma cell lines, NCI-H226 and NCI-H2052 (all sourced from the ATCC cell culture collection) are plated in 96-well plates (Corning® 96 Well White Polystyrene Microplate clear flat bottom, white polystyrene (TC-Treated)), at 1500 cells/well in full medium (RPMI 1640 ATCC modification with L-glutamine, HEPES, Phenol Red, Sodium Pyruvate, High glucose, Low sodium bicarbonate and 10% fetal bovine serum). Cells are incubated overnight at 37° C. in an incubator with 5% CO2. Then compounds, dissolved in DMSO, are added in dose-response. Cells are incubated with compound dilutions for another 6 days at 37° C. in an incubator with 5% CO2. Cell viability is quantitated using the ATPlite kit (Perkin-Elmer) and the luminescence is read-out using an Envision instrument (Perkin-Elmer). The amount of relative light units produced using the ATPlite kit is used to calculated percent of inhibition.
(§2) The activities of some example compounds are depicted in Table 4. The activity ranges A, B and C refer to EC50 values in the mesothelioma cell line proliferation assay as described as follows: “A”: EC50<1 μM; “B”: 1 μM≤EC50≤10 μM and “C”: EC50>10 μM; NT: not tested.
In general terms: ATP-based viability assays read luminescence as a measure of living cells.

Experiment [3] deals with NCI-H2052. The experiment is described as follows: Mesothelioma cell line proliferation assay (ATPlite), NCI-H2052. The following applies: Homo sapiens, 144 h; NCI-H2052 mesothelioma cells, 6 days incubation, ATPlite cell viability. The protocol:
as §1, §2

Broadly, the IC50 is the midpoint of a concentration-inhibition curve. A low value points to greater potency. Broadly, the EC50 is the concentration needed to bring the measured effect to its halfway point. Read a high EC50 as lower potency in that assay.

With `OCCNC1CCc2ccccc2N(c2ccc(C(F)(F)F)cc2)C1` (single isomer, unassigned) [Cpd. No. 003-En1, (R)- or (S)-2-((1-(4-(trifluoromethyl)phenyl)-2,3,4,5-tetrahydro-1H-benzo[b]azepin-3-yl)amino)ethan-1-ol], the IC50 in experiment [1] (Homo sapiens, HEK-293T) lay in the range of 1 to 20 µM.
Still for that read-out and setting: then `CCC(=O)NC1CCc2ccccc2N(c2ccc(C(F)(F)F)cc2)C1` (stereo not drawn) [Cpd. No. 009, N-(1-(4-(trifluoromethyl)phenyl)-2,3,4,5-tetrahydro-1H-benzo[b]azepin-3-yl)propionamide], with 1 to 20 µM.
Regarding `C=CC(=O)NC1Cc2cnccc2N(c2ccc(C(F)(F)F)cc2)C1=O` (stereo not drawn) [Cpd. No. 015, N-(2-oxo-1-(4-(trifluoromethyl)phenyl)-1,2,3,4-tetrahydro-1,6-naphthyridin-3-yl)acrylamide], the IC50 in experiment [1] (Homo sapiens, HEK-293T) fell in the range of 1 to 20 µM.
Compound `C=CC(=O)NC1Cc2ccccc2N(c2ccc(C(F)(F)F)cc2)C1=O` (stereo not drawn) [Cpd. No. 013, N-(2-oxo-1-(4-(trifluoromethyl)phenyl)-1,2,3,4-tetrahydroquinolin-3-yl)acrylamide] displayed an IC50 in experiment [1] (Homo sapiens, HEK-293T) of less than 1 µM. The EC50 in experiment [2] and in experiment [3] was less than 1000 nM throughout.
For the compound `C=CC(=O)NC1CCc2ccccc2N(c2ccc(C(F)(F)F)cc2)C1` (single isomer, unassigned) [Cpd. No. 008-En1, (R)- or (S)-N-(1-(4-(trifluoromethyl)phenyl)-2,3,4,5-tetrahydro-1H-benzo[b]azepin-3-yl)acrylamide], the IC50 in experiment [1] (Homo sapiens, HEK-293T) is less than 1 µM.
The same measure, in the same setting: under `O=C1CCCN(c2ccc(C(F)(F)F)cc2)c2ccc(NCCO)cc21` [Cpd. No. 011, 7-((2-hydroxyethyl)amino)-1-(4-(trifluoromethyl)phenyl)-1,2,3,4-tetrahydro-5H-benzo[b]azepin-5-one] stands 1 to 20 µM; under `O=C1C(NCCO)CCc2ccccc2N1c1ccc(C(F)(F)F)cc1` (stereo not drawn) [Cpd. No. 004, 3-((2-hydroxyethyl)amino)-1-(4-(trifluoromethyl)phenyl)-1,3,4,5-tetrahydro-2H-benzo[b]azepin-2-one], 1 to 20 µM.
In experiment [1] (Homo sapiens, HEK-293T), `OCCCNC1CCc2ccccc2N(c2ccc(C(F)(F)F)cc2)C1` (stereo not drawn) [Cpd. No. 005, 3-((1-(4-(trifluoromethyl)phenyl)-2,3,4,5-tetrahydro-1H-benzo[b]azepin-3-yl)amino)propan-1-ol] yielded a half-inhibitory concentration (IC50) of 1 to 20 µM.
The same measure, in the same setting: then `NC1CCc2ccccc2N(c2ccc(C(F)(F)F)cc2)C1=O` (stereo not drawn) [Cpd. No. 002, 3-amino-1-(4-(trifluoromethyl)phenyl)-1,3,4,5-tetrahydro-2H-benzo[b]azepin-2-one], with more than 20 µM.
Take `O=C1CCCN(c2ccc(C(F)(F)F)cc2)c2ccc(NCCCO)cc21` [Cpd. No. 012, 7-((3-hydroxypropyl)amino)-1-(4-(trifluoromethyl)phenyl)-1,2,3,4-tetrahydro-5H-benzo[b]azepin-5-one]: in experiment [1] (Homo sapiens, HEK-293T), the IC50 was more than 20 µM.
The same measure, in the same setting: under `NC1CCc2ccccc2N(c2ccc(C(F)(F)F)cc2)C1` (stereo not drawn) [Cpd. No. 001, 1-(4-(trifluoromethyl)phenyl)-2,3,4,5-tetrahydro-1H-benzo[b]azepin-3-amine] stands 1 to 20 µM.
In the case of `OCCNC1CCc2ccccc2N(c2ccc(C(F)(F)F)cc2)C1` (single isomer, unassigned) [Cpd. No. 003-En2, (R)- or (S)-2-((1-(4-(trifluoromethyl)phenyl)-2,3,4,5-tetrahydro-1H-benzo[b]azepin-3-yl)amino)ethan-1-ol], the IC50 in experiment [1] lay within 1 to 20 µM.
In experiment [1] (Homo sapiens, HEK-293T), `OCCNC1CCc2ccccc2N(c2ccc(C(F)(F)F)cc2)C1` (stereo not drawn) [Cpd. No. 003, 2-((1-(4-(trifluoromethyl)phenyl)-2,3,4,5-tetrahydro-1H-benzo[b]azepin-3-yl)amino)ethan-1-ol] returned an IC50 of 1 to 20 µM. In addition, the EC50 in experiment [2] and in experiment [3] was more than 10000 nM each time.
The compound `O=C(O)CCNC1CCc2ccccc2N(c2ccc(C(F)(F)F)cc2)C1` (stereo not drawn) [Cpd. No. 006, 3-((1-(4-(trifluoromethyl)phenyl)-2,3,4,5-tetrahydro-1H-benzo[b]azepin-3-yl)amino)propanoic acid] had an IC50 in experiment [1] (Homo sapiens, HEK-293T) of more than 20 µM.
`C=CC(=O)NC1CCc2ccccc2N(c2ccc(C(F)(F)F)cc2)C1` (single isomer, unassigned) [Cpd. No. 008-En2, (R)- or (S)-N-(1-(4-(trifluoromethyl)phenyl)-2,3,4,5-tetrahydro-1H-benzo[b]azepin-3-yl)acrylamide] came in with an IC50 in experiment [1] of less than 1 µM.
With `C=CC(=O)NC1CCc2ccccc2N(c2ccc(C(F)(F)F)cc2)C1` (stereo not drawn) [Cpd. No. 008, N-(1-(4-(trifluoromethyl)phenyl)-2,3,4,5-tetrahydro-1H-benzo[b]azepin-3-yl)acrylamide], the IC50 in experiment [1] (Homo sapiens, HEK-293T) is 1 to 20 µM. Also, the concentration giving a half-maximal response (EC50) in experiment [2] and in experiment [3] was less than 1000 nM throughout.
`O=C1C(NCCCO)CCc2ccccc2N1c1ccc(C(F)(F)F)cc1` (stereo not drawn) [Cpd. No. 007, 3-((3-hydroxypropyl)amino)-1-(4-(trifluoromethyl)phenyl)-1,3,4,5-tetrahydro-2H-benzo[b]azepin-2-one] had an IC50 in experiment [1] (Homo sapiens, HEK-293T) of more than 20 µM.
On to `C=CC(=O)NC1CCc2ccccc2N(c2ccc(C(F)(F)F)cc2)C1=O` (stereo not drawn) [Cpd. No. 010, N-(2-oxo-1-(4-(trifluoromethyl)phenyl)-2,3,4,5-tetrahydro-1H-benzo[b]azepin-3-yl)acrylamide], for which the IC50 in experiment [1] (Homo sapiens, HEK-293T) was more than 20 µM.
In experiment [1] (Homo sapiens, HEK-293T), `C=CC(=O)NC1Cc2c(F)cccc2N(c2ccc(C(F)(F)F)cc2)C1=O` (stereo not drawn) [Cpd. No. 014, N-(5-fluoro-2-oxo-1-(4-(trifluoromethyl)phenyl)-1,2,3,4-tetrahydroquinolin-3-yl)acrylamide] had an IC50 of less than 1 µM. Also, the EC50 in experiment [2] and in experiment [3] was less than 1000 nM in each case.
